Source: patent US20040254162A1, “Oxazolidinone derivatives as antimicrobials” (priority 2001, published 2004)
In brackets after ≈: the same amount, converted by molar mass. Several values for one entry are separate records, joined by “and”; a condition that tells them apart may be missing. Identical values can stand only once.

What was measured:
[1] = test system: Ent. faecalis ATCC 29212; assay: MIC, agar incorporation method; settings: agar incorporation
[2] = test system: MRSA 33; assay: MIC, agar incorporation method; settings: agar incorporation
[3] = test system: VRE 6A (Ent. faecium 6A); assay: MIC, agar incorporation method; settings: agar incorporation
[4] = test system: MRSA 15187; assay: MIC, agar incorporation method; settings: agar incorporation
[5] = test system: S. aureus ATCC 25923; assay: MIC, agar incorporation method; settings: agar incorporation
[6] = test system: Strep. pne. ATCC 6303; assay: MIC, agar incorporation method; settings: agar incorporation
[7] = test system: S. pneum AB 34; assay: MIC, agar incorporation method; settings: agar incorporation
[8] = test system: MRSA 562; assay: In vivo activity against MRSA 562 (ED50); parameters: species or system Methicillin Resistant Staphylococcus aureus; settings: PO; MRSA 562 infection
[9] = test system: MRSA 562; assay: MIC, agar incorporation method; settings: for MIC: MRSA 562, Table 5
[10] = test system: Strep. pyog. ATCC 19615; assay: MIC, agar incorporation method; settings: agar incorporation
[11] = test system: G +ve bacteria; assay: Summary of in vitro activity (MIC); settings: for MIC50 / MIC90: G +ve, Number 49; for Geometric Mean of in vitro activity (MIC): Gram + ve
[12] = test system: S. aureus; assay: Summary of in vitro activity (MIC); settings: S. aureus; for MIC50 / MIC90: Number 8
[13] = test system: S. pneumoniae; assay: Summary of in vitro activity (MIC); settings: S. pneumoniae; for MIC50 / MIC90: Number 19
[14] = test system: E. faecalis; assay: Summary of in vitro activity (MIC); settings: E. faecalis; for MIC50 / MIC90: Number 7
[15] = test system: Porphyromonas asaccharolytica; assay: Agar dilution MIC, anaerobes; format: cell-based; settings: Porphyromonas asaccharolytica; single isolate, anaerobic agar dilution; read-out: MIC Porphyromonas asaccharolytica
[16] = test system: Clostridium camis; assay: Agar dilution MIC, anaerobes; format: cell-based; settings: Clostridium; single isolates, anaerobic agar dilution; read-out: MIC Clostridium camis
[17] = test system: P. acnes; assay: Agar dilution MIC, anaerobes; format: cell-based; settings: Cutibacterium acnes, single isolates, anaerobic agar dilution; read-out: MIC P. acnes
[18] = test system: Porphyromonas gingivalis; assay: Agar dilution MIC, anaerobes; format: cell-based; settings: Porphyromonas gingivalis; single isolate, anaerobic agar dilution; read-out: MIC Porphyromonas gingivalis
[19] = test system: Prevotella melaninogenica; assay: Agar dilution MIC, anaerobes; format: cell-based; settings: Prevotella melaninogenica, single isolates, anaerobic agar dilution; read-out: MIC Prevotella melaninogenica
[20] = test system: Peptostreptococcus prevotii; assay: Agar dilution MIC, anaerobes; format: cell-based; settings: single isolates, anaerobic agar dilution
[21] = test system: Prevotella bivia; assay: Agar dilution MIC, anaerobes; format: cell-based; settings: Prevotella bivia; single isolate, anaerobic agar dilution; read-out: MIC Prevotella bivia
[22] = test system: Fusobacterium necrogenes; assay: Agar dilution MIC, anaerobes; format: cell-based; settings: Fusobacterium necrogenes; single isolate, anaerobic agar dilution; read-out: MIC Fusobacterium necrogenes
[23] = test system: Clostridium difficile; assay: Agar dilution MIC, anaerobes; format: cell-based; settings: single isolates, anaerobic agar dilution
[24] = test system: Clostridium perfringens; assay: microbe, parasite or virus in culture; format: cell-based
[25] = test system: anaerobic bacteria; assay: Agar dilution method for anaerobic bacteria, summary; format: cell-based
[26] = test system: Prevotella intermedia; assay: Agar dilution MIC, anaerobes; format: cell-based; settings: Prevotella intermedia, single isolates, anaerobic agar dilution; read-out: MIC Prevotella intermedia
[27] = test system: Prevotella (Bacteroides) disiens; assay: Agar dilution MIC, anaerobes; format: cell-based; settings: single isolates, anaerobic agar dilution

Row | Structure (SMILES) | MIC E. faecalis 29212 [1] | MIC MRSA 33 [2] | MIC VRE 6A [3] | MIC MRSA 15187 [4] | MIC S. aureus 25923 [5] | MIC S. pneum 6303 [6] | MIC S. pneum AB 34 [7] | ED50 (mg/kg body weight) PO [8] | MIC [9] | MIC S. pyogenes 19615 [10] | MIC50 [11] | MIC90 [11] | Geometric Mean of in vitro activity (MIC) [11] | Geometric Mean of in vitro activity (MIC) [12] | MIC50 [12] | MIC90 [12] | Geometric Mean of in vitro activity (MIC) [13] | MIC50 [13] | MIC90 [13] | Geometric Mean of in vitro activity (MIC) [14] | further results
1 | CC(=O)NC[C@H]1CN(c2ccc(N3CC4C(C3)C4N(C)C(=O)Cc3cccs3)c(F)c2)C(=O)O1 (stereo partly drawn) [Compound No. 71, (S)-N-[[3-[3-Fluoro[4-[3-(1α,5α,6α)-6-[N-(2-thiopheneacetyl)-N-methyl]amino]-3-azabicyclo-[3.1.0]hexane]phenyl]-2-oxo-5-oxazolidinyl]methyl]acetamide] | 8 µg/mL and 4 µg/mL | 8 µg/mL and 4 µg/mL | 8 µg/mL and 4 µg/mL | 8 µg/mL and 4 µg/mL | 8 µg/mL and 4 µg/mL | 4 µg/mL (≈ 8.22 µM) | 2 µg/mL and 4 µg/mL | >25 mg/kg body weight | 4 µg/mL (≈ 8.22 µM) | 4 µg/mL and 2 µg/mL |  |  |  |  |  |  |  |  |  |  | 
2 | CC(=O)NC[C@H]1CN(c2ccc(N3CCN(C(=O)c4ccc([N+](=O)[O-])o4)CC3)c(F)c2)C(=O)O1 [Compound No. 06, (S)-N-[[3-Fluoro-4-[N-1[4-(5-nitro-2-furoyl)piperazinyl]phenyl]-2-oxo-5-oxazolidinyl]methyl]acetamide] | 1 µg/mL (≈ 2.1 µM) | 0.5 µg/mL (≈ 1.05 µM) | 1 µg/mL (≈ 2.1 µM) | 0.5 µg/mL (≈ 1.05 µM) | 1 µg/mL (≈ 2.1 µM) | 2 µg/mL (≈ 4.21 µM) | 2 µg/mL (≈ 4.21 µM) | >25 mg/kg body weight | 1 µg/mL (≈ 2.1 µM) | 2 µg/mL (≈ 4.21 µM) | 1 µg/mL (≈ 2.1 µM) | 2 µg/mL (≈ 4.21 µM) | 0.79 µg/mL | 0.74 µg/mL | 1 µg/mL (≈ 2.1 µM) | 1 µg/mL (≈ 2.1 µM) | 1.27 µg/mL | 2 µg/mL (≈ 4.21 µM) | 2 µg/mL (≈ 4.21 µM) | 0.92 µg/mL | MIC50 [14]: 1 µg/mL (≈ 2.1 µM); MIC90 [14]: 1 µg/mL (≈ 2.1 µM)
3 | CCC[C@@H]1C[C@@H](C(=O)N[C@@H]([C@H]2O[C@H](SC)[C@H](O)[C@@H](O)[C@H]2O)[C@H](C)Cl)N(C)C1 [Clindamycin] |  |  |  |  |  |  |  |  |  |  |  |  |  |  |  |  |  |  |  |  | MIC [15]: ≤ 0.016 µg/mL; MIC [16]: 0.03 µg/mL (≈ 0.0706 µM); MIC [17]: 0.06 µg/mL (≈ 0.141 µM); MIC [18]: ≤ 0.016 µg/mL; MIC [19]: ≤ 0.016 µg/mL; MIC ([20]; Anaerococcus prevotii, read-out: MIC Peptostreptococcus prevotii): 0.25 µg/mL (≈ 0.588 µM); MIC Peptostreptococcus prevotii [20]: 0.125 µg/mL (≈ 0.294 µM); MIC [21]: > 32 µg/mL; MIC [22]: 0.03 µg/mL (≈ 0.0706 µM); MIC ([23]; Clostridioides difficile, read-out: MIC Clostridium difficile): 2 µg/mL (≈ 4.71 µM); MIC Clostridium difficile [23]: 4 µg/mL (≈ 9.41 µM); MIC ([24]; Clostridium perfringens, read-out: MIC Clostridium perfringens, single isolates, anaerobic agar dilution): 1 µg/mL (≈ 2.35 µM); MIC Clostridium perfringens ([24]; single isolates, anaerobic agar dilution): 0.5 µg/mL (≈ 1.18 µM); MIC50 ([25]; 48 h): 0.125 µg/mL (≈ 0.294 µM); MIC90 ([25]; 48 h): 8 µg/mL (≈ 18.8 µM); Geometric Mean ([25]; anaerobes): 0.208 µg/mL; MIC Range ([25]; anaerobes): 0.008 to 64 µg/mL; MIC [26]: ≤ 0.016 µg/mL; MIC Prevotella (Bacteroides) disiens [27]: 4 µg/mL (≈ 9.41 µM); MIC ([27]; read-out: MIC Prevotella (Bacteroides) disiens): 8 µg/mL (≈ 18.8 µM)
4 | CC(=O)NC[C@H]1CN(c2ccc(N3CCN(Cc4ccc([N+](=O)[O-])o4)CC3)c(F)c2)C(=O)O1 [Compound No. 15, (S)-N-[[3-[3-fluoro-4-[N-1-[4-{2-furyl-(5-nitro)methyl}]piperazinyl]phenyl]-2-oxo-5-oxazolidinyl]methyl]acetamide] | 2 µg/mL (≈ 4.33 µM) | 2 µg/mL (≈ 4.33 µM) | 1 µg/mL (≈ 2.17 µM) | 2 µg/mL (≈ 4.33 µM) | 2 µg/mL (≈ 4.33 µM) | 1 µg/mL (≈ 2.17 µM) | 2 µg/mL (≈ 4.33 µM) | 4.33 mg/kg body weight | 2 µg/mL (≈ 4.33 µM) | 1 µg/mL (≈ 2.17 µM) | 1 µg/mL (≈ 2.17 µM) | 2 µg/mL (≈ 4.33 µM) | 1.08 µg/mL | 1.63 µg/mL | 2 µg/mL (≈ 4.33 µM) | 2 µg/mL (≈ 4.33 µM) | 1.04 µg/mL | 2 µg/mL (≈ 4.33 µM) | 4 µg/mL (≈ 8.67 µM) | 1.6 µg/mL | MIC MRSA 562 ([9]; agar incorporation, Table 1): 2 µg/mL (≈ 4.33 µM); MIC50 [14]: 2 µg/mL (≈ 4.33 µM); MIC90 [14]: 2 µg/mL (≈ 4.33 µM)
